{"source": "paper PMC11157767", "about": "(Molecular Cancer, 2024)", "system": "TRIM24-MET-i cells", "details": "GSEA, v. DMSO", "description": "The number of unique and shared differentially expressed genes between each comparison are shown in parentheses. A linear regression line is depicted along with Pearson’s correlation coefficient (r) and its associated p-value. […] Common negatively enriched genesets between all three comparisons are in bold. c, Heatmaps showing expression of Hallmark_Myc_Target_v1/2 genes for indicated cells and treatment comparisons (TRIM-MET cells were treated in vitro, TFG-MET cells in vivo). Select leading edge genes from GSEA are labeled.", "data": [{"compound": "C[C@@H](Oc1cc(-c2cnn(C3CCNCC3)c2)cnc1N)c1c(Cl)ccc(F)c1Cl", "note": "[Crizotinib]", "values": [{"measurement": "ES GOCC_MITOCHONDRIAL_ENVELOPE", "result": -0.5203}, {"measurement": "ES GOCC_ORGANELLE_INNER_MEMBRANE", "result": -0.5635}, {"measurement": "ES GOCC_PRERIBOSOME", "result": -0.8837}, {"measurement": "ES GOCC_RIBONUCLEOPROTEIN_COMPLEX", "result": -0.6028}, {"measurement": "ES GOCC_RIBOSOME", "result": -0.6378}, {"measurement": "ES GOMF_STRUCTURAL_CONSTITUENT_OF_RIBOSOME", "result": -0.6065}, {"measurement": "ES HALLMARK_ADIPOGENESIS", "result": -0.3925}, {"measurement": "ES HALLMARK_ALLOGRAFT_REJECTION", "result": -0.3891}, {"measurement": "ES HALLMARK_ANDROGEN_RESPONSE", "result": -0.4501}, {"measurement": "ES HALLMARK_ANGIOGENESIS", "result": -0.5001}, {"measurement": "ES HALLMARK_APICAL_JUNCTION", "result": -0.2207}, {"measurement": "ES HALLMARK_APICAL_SURFACE", "result": 0.438}, {"measurement": "ES HALLMARK_APOPTOSIS", "result": -0.353}, {"measurement": "ES HALLMARK_CHOLESTEROL_HOMEOSTASIS", "result": -0.4271}, {"measurement": "ES HALLMARK_COAGULATION", "result": -0.3066}, {"measurement": "ES HALLMARK_COMPLEMENT", "result": -0.2741}, {"measurement": "ES HALLMARK_DNA_REPAIR", "result": -0.3968}, {"measurement": "ES HALLMARK_E2F_TARGETS", "result": -0.4061}, {"measurement": "ES HALLMARK_EPITHELIAL_MESENCHYMAL_TRANSITION", "result": -0.2384}, {"measurement": "ES HALLMARK_ESTROGEN_RESPONSE_EARLY", "result": -0.4462}, {"measurement": "ES HALLMARK_ESTROGEN_RESPONSE_LATE", "result": -0.2995}, {"measurement": "ES HALLMARK_G2M_CHECKPOINT", "result": -0.4157}, {"measurement": "ES HALLMARK_GLYCOLYSIS", "result": -0.4578}, {"measurement": "ES HALLMARK_HEDGEHOG_SIGNALING", "result": -0.4357}, {"measurement": "ES HALLMARK_HYPOXIA", "result": -0.2949}, {"measurement": "ES HALLMARK_IL2_STAT5_SIGNALING", "result": -0.5104}, {"measurement": "ES HALLMARK_IL6_JAK_STAT3_SIGNALING", "result": -0.3352}, {"measurement": "ES HALLMARK_INFLAMMATORY_RESPONSE", "result": -0.4227}, {"measurement": "ES HALLMARK_INTERFERON_ALPHA_RESPONSE", "result": 0.333}, {"measurement": "ES HALLMARK_INTERFERON_GAMMA_RESPONSE", "result": -0.2664}, {"measurement": "ES HALLMARK_KRAS_SIGNALING_DN", "result": 0.421}, {"measurement": "ES HALLMARK_KRAS_SIGNALING_UP", "result": -0.3522}, {"measurement": "ES HALLMARK_MITOTIC_SPINDLE", "result": 0.3203}, {"measurement": "ES HALLMARK_MTORC1_SIGNALING", "result": -0.615}, {"measurement": "ES HALLMARK_MYC_TARGETS_V1", "result": -0.7224}, {"measurement": "ES HALLMARK_MYC_TARGETS_V2", "result": -0.8712}, {"measurement": "ES HALLMARK_MYOGENESIS", "result": 0.2133}, {"measurement": "ES HALLMARK_NOTCH_SIGNALING", "result": -0.3408}, {"measurement": "ES HALLMARK_OXIDATIVE_PHOSPHORYLATION", "result": -0.5351}, {"measurement": "ES HALLMARK_P53_PATHWAY", "result": -0.3345}, {"measurement": "ES HALLMARK_PANCREAS_BETA_CELLS", "result": 0.2531}, {"measurement": "ES HALLMARK_PEROXISOME", "result": -0.2701}, {"measurement": "ES HALLMARK_PI3K_AKT_MTOR_SIGNALING", "result": -0.3822}, {"measurement": "ES HALLMARK_PROTEIN_SECRETION", "result": -0.253}, {"measurement": "ES HALLMARK_TGF_BETA_SIGNALING", "result": -0.4216}, {"measurement": "ES HALLMARK_TNFA_SIGNALING_VIA_NFKB", "result": -0.4566}, {"measurement": "ES HALLMARK_UNFOLDED_PROTEIN_RESPONSE", "result": -0.6894}, {"measurement": "ES HALLMARK_UV_RESPONSE_DN", "result": 0.2824}, {"measurement": "ES HALLMARK_UV_RESPONSE_UP", "result": -0.4491}, {"measurement": "ES HALLMARK_WNT_BETA_CATENIN_SIGNALING", "result": -0.3428}, {"measurement": "ES KRIGE_RESPONSE_TO_TOSEDOSTAT_6HR_DN", "result": -0.7282}, {"measurement": "ES KRIGE_RESPONSE_TO_TOSEDOSTAT_24HR_DN", "result": -0.7493}, {"measurement": "ES LEE_BMP2_TARGETS_DN", "result": -0.726}, {"measurement": "ES PUJANA_CHEK2_PCC_NETWORK", "result": -0.6234}, {"measurement": "ES WEI_MYCN_TARGETS_WITH_E_BOX", "result": -0.7486}, {"measurement": "NES GOBP_NCRNA_PROCESSING", "result": -2.807}, {"measurement": "NES GOBP_RIBONUCLEOPROTEIN_COMPLEX_BIOGENESIS", "result": -2.6966}, {"measurement": "NES GOBP_RIBOSOME_BIOGENESIS", "result": -2.885}, {"measurement": "NES GOCC_MITOCHONDRIAL_ENVELOPE", "result": -1.997}, {"measurement": "NES GOCC_ORGANELLE_INNER_MEMBRANE", "result": -2.127}, {"measurement": "NES GOCC_PRERIBOSOME", "result": -2.754}, {"measurement": "NES GOCC_RIBONUCLEOPROTEIN_COMPLEX", "result": -2.312}, {"measurement": "NES GOCC_RIBOSOME", "result": -2.274}, {"measurement": "NES GOMF_STRUCTURAL_CONSTITUENT_OF_RIBOSOME", "result": -2.105}, {"measurement": "NES HALLMARK_ADIPOGENESIS", "result": -1.373}, {"measurement": "NES HALLMARK_ALLOGRAFT_REJECTION", "result": -1.343}, {"measurement": "NES HALLMARK_ANDROGEN_RESPONSE", "result": -1.464}, {"measurement": "NES HALLMARK_ANGIOGENESIS", "result": -1.355}, {"measurement": "NES HALLMARK_APICAL_JUNCTION", "result": -0.7717}, {"measurement": "NES HALLMARK_APICAL_SURFACE", "result": 1.391}, {"measurement": "NES HALLMARK_APOPTOSIS", "result": -1.211}, {"measurement": "NES HALLMARK_CHOLESTEROL_HOMEOSTASIS", "result": -1.341}, {"measurement": "NES HALLMARK_COMPLEMENT", "result": -0.9577}, {"measurement": "NES HALLMARK_DNA_REPAIR", "result": -1.352}, {"measurement": "NES HALLMARK_E2F_TARGETS", "result": -1.43}, {"measurement": "NES HALLMARK_EPITHELIAL_MESENCHYMAL_TRANSITION", "result": -0.8343}, {"measurement": "NES HALLMARK_ESTROGEN_RESPONSE_EARLY", "result": -1.563}, {"measurement": "NES HALLMARK_ESTROGEN_RESPONSE_LATE", "result": -1.046}, {"measurement": "NES HALLMARK_G2M_CHECKPOINT", "result": -1.457}, {"measurement": "NES HALLMARK_GLYCOLYSIS", "result": -1.603}, {"measurement": "NES HALLMARK_HEDGEHOG_SIGNALING", "result": -1.2}, {"measurement": "NES HALLMARK_HYPOXIA", "result": -1.03}, {"measurement": "NES HALLMARK_IL2_STAT5_SIGNALING", "result": -1.788}, {"measurement": "NES HALLMARK_IL6_JAK_STAT3_SIGNALING", "result": -1.065}, {"measurement": "NES HALLMARK_INFLAMMATORY_RESPONSE", "result": -1.474}, {"measurement": "NES HALLMARK_INTERFERON_ALPHA_RESPONSE", "result": 1.217}, {"measurement": "NES HALLMARK_INTERFERON_GAMMA_RESPONSE", "result": -0.9329}, {"measurement": "NES HALLMARK_KRAS_SIGNALING_DN", "result": 1.674}, {"measurement": "NES HALLMARK_KRAS_SIGNALING_UP", "result": -1.231}, {"measurement": "NES HALLMARK_MITOTIC_SPINDLE", "result": 1.318}, {"measurement": "NES HALLMARK_MTORC1_SIGNALING", "result": -2.165}, {"measurement": "NES HALLMARK_MYC_TARGETS_V1", "result": -2.537}, {"measurement": "NES HALLMARK_MYC_TARGETS_V2", "result": -2.6498}, {"measurement": "NES HALLMARK_MYOGENESIS", "result": 0.8749}, {"measurement": "NES HALLMARK_NOTCH_SIGNALING", "result": -0.9083}, {"measurement": "NES HALLMARK_OXIDATIVE_PHOSPHORYLATION", "result": -1.871}, {"measurement": "NES HALLMARK_P53_PATHWAY", "result": -1.1707}, {"measurement": "NES HALLMARK_PANCREAS_BETA_CELLS", "result": 0.7398}, {"measurement": "NES HALLMARK_PEROXISOME", "result": -0.8785}, {"measurement": "NES HALLMARK_PI3K_AKT_MTOR_SIGNALING", "result": -1.243}, {"measurement": "NES HALLMARK_PROTEIN_SECRETION", "result": -0.8206}, {"measurement": "NES HALLMARK_TGF_BETA_SIGNALING", "result": -1.271}, {"measurement": "NES HALLMARK_TNFA_SIGNALING_VIA_NFKB", "result": -1.6076}, {"measurement": "NES HALLMARK_UNFOLDED_PROTEIN_RESPONSE", "result": -2.272}, {"measurement": "NES HALLMARK_UV_RESPONSE_DN", "result": 1.115}, {"measurement": "NES HALLMARK_UV_RESPONSE_UP", "result": -1.536}, {"measurement": "NES HALLMARK_WNT_BETA_CATENIN_SIGNALING", "result": -0.9746}, {"measurement": "NES KRIGE_RESPONSE_TO_TOSEDOSTAT_6HR_DN", "result": -2.811}, {"measurement": "NES KRIGE_RESPONSE_TO_TOSEDOSTAT_24HR_DN", "result": -2.908}, {"measurement": "NES LEE_BMP2_TARGETS_DN", "result": -2.799}, {"measurement": "NES PUJANA_CHEK2_PCC_NETWORK", "result": -2.394}, {"measurement": "NES WEI_MYCN_TARGETS_WITH_E_BOX", "result": -2.882}]}]}
